The record followed here is patent US6395906B1, “Intermediates to pesticidal 1-arylpyrazoles” (Rhone-Poulenc Inc., priority 1995, dated 2002).

Type in all cases: in vivo
Assay [1] has as its system American cockroach (Periplaneta americana). Description: American cockroach (ACR) treated food pellet test. To be noted: food pellets with 500 ppm formulation; nymphs, contact and feeding mortality 1 and 5 days after infestation. Summed up: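 Pet-food pellets treated with 500 ppm compound in DMF/acetone/emulsifier/water; solvent-only blank as control. Nymphs added after 48 h; contact and feeding mortality scored 1 and 5 days post-infestation.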

For assay [2], the system named is dog tick (Rhipicephalus sanguineus). Kind of assay: Dog tick (DT) treated filter paper contact test. The following applies: 500 ppm, adult ticks, contact mortality 14 days after infestation. As for the experimental part:
(§1) For the tick, aphids, souther armyworm, tobacco budworm, house fly, Mexican bean beetle, American cockroach, cat flea, souther corn rootworm, western corn rootworm, black cutworm, and southern root-knot nematode, a solution or suspension was prepared by adding the test compound to a solution of dimethylformamide, acetone, emulsifiers which are alkylaryl polyether alcohols organic sulfonates, and water. The result was a 100 or 500 ppm concentration of the test compound.
(§2) Cat flea (CF), dog tick (DT): Filter papers were treated with an aliquot of the 500 ppm test formulation. As an untreated control, an aliquot of a water-acetone-DMF-emulsifier solution containing no test compound was applied in a similar manner. When dry, 2 treated filters were placed in a vial for the flea and another 2 filters in a vial for the tick. Five adult fleas were added to one vial and 5 adult ticks to the second vial. Contact mortality was assessed 1 day after infestation for the flea and 14 days after infestation for the tick.

In assay [3] the test system is cat flea (Ctenocephalides felis). Description: Cat flea (CF) treated filter paper contact test. The following applies: 500 ppm, adult fleas, contact mortality 1 day after infestation. As for the experimental part:
as §1, §2

In assay [4] the test system is western corn rootworm (Diabrotica virgifera virgifera). Kind of assay: Western corn rootworm (WCRW) soil test. The following applies: soil concentration 0.15 or 0.5 ppm; neonate larvae, mortality six days after infestation. Summed up: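 Test formulation applied to dry sandy loam soil in a jar for 0.15 or 0.5 ppm soil concentration; solvent-only untreated control. After 24 h covered incubation, four germinated corn seedlings and ten neonate larvae added. Mortality assessed 6 days after infestation by Berlese funnel extraction.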

The test system of assay [5] is buckthorn aphid (Aphis nasturtii). Description: Buckthorn aphid (BA) foliar spray test. To be noted: nasturtium plants wet to runoff, 100 or 500 ppm; dead aphids counted after one day. As for the experimental part:
as §1
Buckthorn aphid (BA) or cotton aphid (CA): Adult and nymphal stages of buckthorn or cotton aphid were reared on potted dwarf nasturtium or cotton plants, respectively. Plants infested with 100-150 aphids were wet to runoff with the 100 or 500 ppm test compound formulation. As an untreated control, a water-acetone-DMF-emulsifier solution containing no test compound was also applied to runoff to infested plants. The treated plants were stored for one day for buckthorn aphid and three days for cotton aphid, after which the dead aphids were counted.

The subject of assay [6] is tobacco budworm (Heliothis virescens). Description: Tobacco budworm (TBW) treated cotton leaf test. To be noted: cotton leaves, 100 ppm; second instar larvae, five days. The method, boiled down: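 Leaf-dip test: cotton leaves wetted to runoff with 100 ppm compound in DMF/acetone/emulsifier/water, dried, then offered to ten second-instar Heliothis virescens larvae in closed cups with moist wicks. Mortality scored after five days; larvae unable to move one body length on prodding counted dead; solvent-emulsifier control run alongside.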

Assay [7] has as its system Mexican bean beetle (Epilachna varivestis). Kind of assay: Mexican bean beetle (MBB) treated bean leaf test. To be noted: bean leaves, 100 or 500 ppm; second instar larvae, five days. As for the experimental part:
as §1
Southern armyworm (SAW), Mexican bean beetle (MBB): Bean leaves were wet to runoff with the 100 or 500 ppm test compound formulation. As an untreated control, a water-acetone-DMF-emulsifier solution containing no test compound was also applied wet to runoff to bean leaves. Five or six randomly selected second instar southern armyworn larvae or Mexican bean bettle larvae were introduced into each plastic container with the dry treated leaves. The container was closed and held for five days. Larvae which were unable to move the length of the body, even upon stimulation by prodding, were considered dead.

With `CCOC(OCC)c1c(SC(F)(F)F)c(C#N)nn1-c1c(Cl)cc(C(F)(F)F)cc1Cl` [Compound 18, 3-Cyano-1-(2,6-dichloro-4-trifluoromethylphenyl)-5-diethoxymethyl-4-trifluoromethylthiopyrazole], in assay [1], the ACR entry is “+ (active against 1 or more insects described above up to 100% mortality. This activity is indicated by a “+”)”. In assay [2], the DT entry is recorded as “+ (active against 1 or more insects described above up to 100% mortality. This activity is indicated by a “+”)”. The CF result in assay [3] is “+ (active against 1 or more insects described above up to 100% mortality. This activity is indicated by a “+”)”. Further, in assay [4], the WCRW entry was “+ (active against 1 or more insects described above up to 100% mortality. This activity is indicated by a “+”)”.

On to `CC(=O)c1c(S(=O)(=O)C(F)(F)F)c(C#N)nn1-c1c(Cl)cc(C(F)(F)F)cc1Cl` [Compound 1, 5-Acetyl-3-cyano-1-(2,6-dichloro-4-trifluoromethylphenyl)-4-trifluoromethylsulfonylpyrazole], for which the BA result in assay [5] is recorded as “+ (active against 1 or more insects described above up to 100% mortality. This activity is indicated by a “+”)”. Further, the TBW result in assay [6] is reported as “+ (active against 1 or more insects described above up to 100% mortality. This activity is indicated by a “+”)”. The MBB result in assay [7] is “+ (active against 1 or more insects described above up to 100% mortality. This activity is indicated by a “+”)”.
